Test results reported in patent publication US20100029575A1, “N-Oxides of Kappa Receptor Peptides” (priority 2006, published 2010).
Values joined by “and” are separate entries in the source; they are usually repeats but may differ in a detail not shown here. Equal values may be shown once. Square brackets hold non-standard residues; d marks the D form. Peptide text beside a SMILES is read from it. * marks the point of attachment. dNle = CCCC[C@@H](N)C(=O)O; X1 = [O-][n+]1ccc(CN*)cc1

Assays:
Kappa Opioid Receptor [1] = molecular target: T1, Kappa Opioid Receptor (Mus musculus, UniProt P33534); assay: Functional second messenger assay, Gi-mediated inhibition of adenylate cyclase (cAMP, mouse brain); assay type: biochemical; conditions: for EC50: Kappa Opioid Receptor Activity EC50, cAMP; for Kappa Opioid Receptor Activity Pct Max: cAMP
T1 construct: (cAMP, mouse brain); from tissue; host or cells: mouse brain

P450 3A4 [2] = molecular target: T2, P450 3A4 (Homo sapiens, UniProt P08684); assay: P450 3A4/BQ inhibition; assay type: in vitro ADME
Protocol: (§1) Enzyme assays are well known in the art and CYP450 enzymes from several species have been cloned. Although these cloned enzymes readily allow a particular candidate compound, e.g., a peptide, to be screened, natural sources of CYP450 enzymes, e.g., liver microsomes, are also useful for screening, as is well known in the art. Preferred analogs have a Ki for CYP450 enzymes of about 10 micromolar (uM) or more, whereas more preferred analogs have a Ki for […] of about 100 uM or more. For the purpose of identifying useful compounds of the invention, the IC50 is a useful approximation of the Ki.

P450 3A4 [3] = molecular target: T2, P450 3A4; assay: P450 3A4/BFC inhibition; assay type: in vitro ADME
Protocol: as §1

cytochrome P450 enzymes = assay: Cytochrome P450 enzyme activities; assay type: in vitro ADME; conditions: summary of Table 4
Protocol: as §1

P450 1A2 = molecular target: T3, P450 1A2 (Homo sapiens, UniProt P05177); assay: P450 1A2 inhibition; assay type: in vitro ADME
T3 sequence (P05177 1-516): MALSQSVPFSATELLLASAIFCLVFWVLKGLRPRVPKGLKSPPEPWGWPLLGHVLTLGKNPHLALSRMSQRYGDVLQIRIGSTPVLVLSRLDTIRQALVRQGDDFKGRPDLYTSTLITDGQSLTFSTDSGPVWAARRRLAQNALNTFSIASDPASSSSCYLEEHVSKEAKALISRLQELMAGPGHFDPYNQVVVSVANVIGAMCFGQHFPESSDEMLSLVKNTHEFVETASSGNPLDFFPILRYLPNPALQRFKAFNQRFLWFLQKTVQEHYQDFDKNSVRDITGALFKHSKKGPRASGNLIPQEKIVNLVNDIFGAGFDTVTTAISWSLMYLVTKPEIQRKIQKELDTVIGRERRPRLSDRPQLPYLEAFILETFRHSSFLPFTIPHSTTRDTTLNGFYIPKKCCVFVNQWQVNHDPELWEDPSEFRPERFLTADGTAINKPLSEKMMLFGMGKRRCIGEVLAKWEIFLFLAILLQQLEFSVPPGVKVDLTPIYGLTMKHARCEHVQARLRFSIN
Protocol: as §1

Kappa Opioid Receptor [4] = molecular target: T4, Kappa Opioid Receptor (Cavia porcellus, UniProt P41144); assay: Kappa opioid receptor binding, competitive displacement of bound radioligand (guinea pig brain membranes); conditions: for IC50: Kappa Opioid Receptor Binding IC50, guinea pig brain; for Kappa Opioid Receptor Binding Pct Max: guinea pig brain
T4 construct: from tissue; host or cells: guinea pig brain membranes
Source text: (§2) Receptor assays are well known in the art and kappa opioid receptors from several species have been cloned, as have mu and delta opioid receptors. Kappa opioid receptors as well as mu and delta opioid receptors are classical, seven-transmembrane spanning, G-protein coupled receptors. Although these cloned receptors readily allow a particular candidate compound, e.g., a peptide, to be screened, natural sources of mammalian opioid receptors are also useful for screening, as is well known in the art (Dooley C T et al. Selective ligands for the mu, delta, and kappa opioid receptors identified from a single mixture based tetrapeptide positional scanning combinatorial library. J. Biol. Chem. 273:18848-56, 1998). Thus, screening against both kappa and mu opioid receptors, whether of recombinant or natural origin, may be carried out in order to determine the selectivity of the compound(s) for the kappa relative to the mu opioid receptor.
(§3) Binding affinity refers to the strength of interaction between ligand and receptor. […] These studies can be performed using cloned kappa and mu opioid receptors expressed in stable transfected cell lines or naturally occurring opioid receptors from a receptor-enriched tissue source, as noted above. In these studies, the test compounds (unlabeled ligands) are used at increasing concentrations to displace the specific binding of a radiolabeled ligand that has high affinity and selectivity for the receptor studied. Tritiated U-69,593 and DAMGO can be used as ligands in kappa and mu opioid receptor studies, respectively. Both ligands are commercially available (NEN-Dupont). DAMGO is an acronym for [D-Ala^2, MePhe^4, Gly-ol^5]-enkephalin. The affinity of the radioligands is defined by the concentration of radioligand that results in half-maximal specific binding (KD) in saturation studies. The affinity of the test compound (unlabeled or cold ligand) is determined in competition binding studies by calculating the inhibitory constant (Ki) according to the following formula:
(§4) where IC50=Concentration of the cold ligand that inhibits 50% of the specific binding of the radioligand
(§5) F=free radioligand concentration
(§6) KD=affinity of the radioligand determined in saturation studies.
(§7) When performing these assays under specific conditions with relatively low concentrations of receptor, the calculated Ki for the test compound is a good approximation of its dissociation constant KD, which represents the concentration of ligand necessary to occupy one-half (50%) of the binding sites. […]
(§8) These binding assays employing kappa opioid receptors and mu opioid receptors are straightforward to perform and can be readily carried out with large numbers of compounds to determine whether such compounds are kappa opioid receptor-selective and have high affinity. […]

Mu Opioid Receptor = molecular target: T5, Mu Opioid Receptor (Rattus norvegicus, UniProt P33535); assay: Mu opioid receptor binding, competitive displacement of bound radioligand (rat brain membranes)
T5 construct: from tissue; host or cells: rat brain membranes
Source text: as §2, §3, §4, §5, §6, §7, §8

P450 2C9 = P450 2C9 (Homo sapiens, UniProt P11712); assay: P450 2C9 inhibition; assay type: in vitro ADME
Protocol: as §1

## CCCC[C@@H](NC(=O)[C@@H](Cc1ccccc1)NC(=O)[C@H](N)Cc1ccccc1)C(=O)N[C@H](CCCNC(=N)N)C(=O)NCc1cc[n+]([O-])cc1 [Peptide No. 1, H-D-Phe-D-Phe-D-Nle-D-Arg-NH-4-picolyl-N-oxide] (H-[dF][dF][dNle][dR]-X1)
Kappa Opioid Receptor [1]; Mean
  EC50: 0.42 nM
  Kappa Opioid Receptor Activity Pct Max: 101.43 Pct
Kappa Opioid Receptor [1]; individual samples
  EC50: 0.3 nM and 0.57 nM
Kappa Opioid Receptor [1]; individual samples, listed as Peptide 1
  Kappa Opioid Receptor Activity Pct Max: 92.46 Pct and 110.41 Pct
P450 3A4 [2]; Mean
  P450 3A4/BQ Inhibition Pct Max: 18 Pct
P450 3A4 [2]; individual samples
  P450 3A4/BQ Inhibition IC50: No Fit
  P450 3A4/BQ Inhibition Pct Max: 15 Pct and 21 Pct
P450 3A4 [3]; Mean
  P450 3A4/BFC Inhibition Pct Max: 26 Pct
P450 3A4 [3]; individual samples
  P450 3A4/BFC Inhibition IC50: No Fit
  P450 3A4/BFC Inhibition Pct Max: 22 Pct and 17 Pct and 40 Pct
Cytochrome P450 enzymes
  inhibitory activity on several cytochrome P450 enzyme activities: absence of significant inhibitory activity
P450 1A2; Mean
  P450 1A2 Inhibition Pct Max: 13 Pct
P450 1A2; individual samples
  P450 1A2 Inhibition IC50: No Fit
  P450 1A2 Inhibition Pct Max: 15 Pct and 10 Pct
Kappa Opioid Receptor [4]; Mean
  IC50: ~6.3 nM and 6.3 nM
  Kappa Opioid Receptor Binding Pct Max: 109.4 Pct
Kappa Opioid Receptor [4]; individual samples
  IC50: 2.6 nM and 9.4 nM and 4.2 nM
Kappa Opioid Receptor [4]; individual samples, listed as Peptide1
  Kappa Opioid Receptor Binding Pct Max: 105.2 Pct and 117.3 Pct and 105.6 Pct
Mu Opioid Receptor; rat brain
  Mu Opioid Receptor Binding IC50: too high to determined
Mu Opioid Receptor; rat brain membranes
  maximal binding inhibition at MOR: 15.5%
Mu Opioid Receptor; rat brain, Sample 1
  Mu Opioid Receptor Binding Pct Max: 15.5 Pct
Mu Opioid Receptor; rat brain, listed as Peptide1
  Mu Opioid Receptor Binding IC50: No Fit
P450 2C9
  IC50: > 10 µM
P450 2C9; Mean
  P450 2C9 Inhibition Pct Max: 26 Pct
P450 2C9; individual samples
  P450 2C9 Inhibition Pct Max: 21 Pct and 31 Pct
